Reference: PubChem BioAssay (NCI)
Several values for one entry are separate records, joined by “and”; a condition that tells them apart may be missing. Identical values can stand only once.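 Protocol summary: plate cells (96-well), add compound at 5 concentrations, incubate 48 h, interpolate endpoints linearly. Abbreviation: GI50, concentration required for 50% inhibition of growth. The concentration for full growth arrest is given as TGI.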

Tests used:
Experiment in all cases: inhibition of tumour cell growth, NCI panel, 48 h
DU-145 prostate = tested on: DU-145 prostate
UACC-257 melanoma = tested on: UACC-257 melanoma
HL-60(TB) leukemia = tested on: HL-60(TB) leukemia
CAKI-1 renal = tested on: CAKI-1 renal
U251 CNS = tested on: U251 CNS
NCI-H23 lung = tested on: NCI-H23 lung
OVCAR-4 ovarian = tested on: OVCAR-4 ovarian
HS 578T breast = tested on: HS 578T breast
M14 melanoma = tested on: M14 melanoma
LOX IMVI melanoma = tested on: LOX IMVI melanoma

Row | SMILES | GI50 (DU-145 prostate) | TGI (DU-145 prostate) | GI50 (UACC-257 melanoma) | TGI (UACC-257 melanoma) | GI50 (HL-60(TB) leukemia) | TGI (HL-60(TB) leukemia) | GI50 (CAKI-1 renal) | TGI (CAKI-1 renal) [µM] | GI50 (U251 CNS) | TGI (U251 CNS) | GI50 (NCI-H23 lung) | TGI (NCI-H23 lung) | GI50 (OVCAR-4 ovarian) | TGI (OVCAR-4 ovarian) | GI50 (HS 578T breast) | TGI (HS 578T breast) | GI50 (M14 melanoma) | TGI (M14 melanoma) | GI50 (LOX IMVI melanoma) | TGI (LOX IMVI melanoma)
1 | CC(=O)Oc1ccc(OC(C)=O)c2ccccc12 | 15.9 µM | 29.6 µM | 3.95 µM | 13.8 µM | 2.72 µM | 7.87 µM | 6.79 µM | 23.3 | 13.8 µM | 27.2 µM | 12.7 µM | 27.5 µM | 1.71 µM | 3.1 µM | 13.2 µM | 67.1 µM | 16.1 µM | 30.4 µM | 14.8 µM | 30.7 µM
2 | COc1cc(-c2cc(-c3ccc(N(C)C)cc3)nc(N3CCOCC3)c2C#N)cc(OC)c1OC | 9.12 µM | > 100 µM | 1.18 µM | > 82.9 µM | 0.468 µM |  | 0.333 µM | > 33.8 | 1.96 µM | > 84.6 µM | 6.66 µM | > 100 µM | 21.4 µM | > 100 µM | 22.1 µM | > 100 µM | 0.322 µM | 1.47 µM | 0.0676 µM | 0.225 µM
3 | COc1ccccc1/C=C\c1cnnc2ccccc12 |  | > 10 µM |  | > 10 µM |  | > 10 µM |  | > 10 |  | > 10 µM |  | > 10 µM |  | > 10 µM |  | > 10 µM |  | > 10 µM |  | > 10 µM
4 | Cn1nc(C(F)(F)F)c(-c2ccc(Cl)c(C(F)(F)F)c2)c1-c1ccc(OCc2ccc(Cl)cc2)cc1O | 2.03 µM | 7.47 µM | 1.37 µM | 4.09 µM | 1.4 µM | 3.5 µM | 1.48 µM | 5.62 | 1.66 µM | 5.62 µM | 1.41 µM | 4.83 µM | 1.62 µM | 6.13 µM | 1.42 µM | 8.98 µM | 1.81 µM | 6.85 µM | 1.58 µM | 5.73 µM
5 | Cc1ccc2nc3c(C)c(Cl)c(=O)cc-3sc2c1 |  | > 100 µM |  | 53.8 µM |  | 26.7 µM |  | > 100 |  | > 91.5 µM |  | 34.3 µM |  | > 100 µM |  | 71.7 µM |  | 36.4 µM |  | 33.6 µM
6 | Nc1[nH]c(=O)ncc1F |  | > 100 µM |  | > 100 µM |  | > 100 µM |  | > 100 |  | > 100 µM |  | > 100 µM |  | > 100 µM |  | > 100 µM |  | > 100 µM |  | > 100 µM
7 | CC(CN=C(CC(=O)c1ccc(Br)cc1)c1ccccc1)N=C(CC(=O)c1ccc(Br)cc1)c1ccccc1 (stereo not drawn) | 64.4 µM | > 100 µM | 7.77 µM | > 100 µM | 17.2 µM | 68 µM | 67.1 µM | > 100 | > 100 µM | > 100 µM | 8.9 µM | > 100 µM | 8.15 µM | > 100 µM | > 100 µM | > 100 µM |  |  | 66.1 µM | > 100 µM
8 | Nc1ncnc2c1c(C(F)(F)F)cn2[C@@H]1O[C@H](CO)[C@@H](O)[C@H]1O | 0.0945 µM | > 100 µM | 0.306 µM |  | 0.212 µM | 0.492 µM | 0.49 µM | > 100 | 1.33 µM | > 89.6 µM | 0.153 µM | 5.29 µM | 1.03 µM | > 100 µM | 0.813 µM | 7.54 µM | 0.0419 µM | 1.91 µM | 0.051 µM | > 100 µM
9 | COc1ccc(-c2ccc(/C=C/C(=O)NO)cc2)cc1 | 0.394 µM | 4.45 µM | 2.13 µM | 13.8 µM | 0.269 µM |  | 1.42 µM | 6.11 | 1.14 µM | 3.08 µM | 1.53 µM | 6.18 µM | 0.362 µM | 4.44 µM | 3.15 µM | 56.3 µM | 1.45 µM | 7.64 µM | 0.417 µM | 2.61 µM
10 | CN(C)CCCNc1nn2c(=O)c3ccccc3nc2c2ccccc12 | 10.4 µM | 28.4 µM | 16 µM | 32.6 µM | 18.1 µM | 72.7 µM | 4.49 µM | 25.3 | 10.8 µM | 26.5 µM | 5.89 µM | 24.7 µM | 10.4 µM | 22.4 µM | 3.67 µM | 19.9 µM | 11.8 µM | 24.5 µM | 3.8 µM | 17.2 µM
11 | C[C@]12O[C@H](C[C@]1(O)CO)n1c3ccccc3c3c4c(c5c6ccccc6n2c5c31)CNC4=O | 0.0881 µM and 0.11 µM | > 10 µM and 10.2 µM | 0.25 µM and 0.366 µM | 2.57 µM and 2.46 µM | 0.233 µM and 0.0928 µM | > 2.31 µM and 1.23 µM | 0.00582 µM and < 0.0169 µM |  | 0.808 µM and 0.523 µM | 3.58 µM and 2.95 µM | 0.0843 µM and 0.189 µM | 2.32 µM and 2.63 µM | 0.891 µM and 1.4 µM | 4.99 µM and 7.19 µM | 0.178 µM and 0.239 µM | 3.01 µM and 3.61 µM | 0.0159 µM and 0.0297 µM | 0.492 µM and 1.97 µM | 0.0531 µM and 0.13 µM | 1.11 µM and 1.29 µM
12 | Cc1ccc(Cl)cc1Nc1nc(C(F)(F)F)ccc1C(=O)Nc1cccc(C(F)(F)F)c1 | 4.76 µM | 16.6 µM | 2.93 µM | 8.35 µM | 3.61 µM | 10.5 µM | 4.14 µM | 18.1 | 3.68 µM | 14.5 µM | 2.63 µM | 11.9 µM | 3.58 µM | 17.8 µM | 4.66 µM | 20 µM | 2.99 µM | 10.3 µM | 3.73 µM | 13.2 µM
13 | CCSc1oc(-c2ccccc2)nc1[P+](c1ccccc1)(c1ccccc1)c1ccccc1 | 0.314 µM | 2.63 µM | 0.309 µM | 1.28 µM | 0.149 µM | 0.469 µM | 0.79 µM | 2.66 | 0.163 µM | 4.61 µM | 0.277 µM | 1.1 µM | 0.217 µM | 1.48 µM | 0.314 µM | 2.72 µM | 0.334 µM | 1.84 µM | 0.184 µM | 0.412 µM
14 | C/C(=C\c1ccc(Cl)cc1)C(C)(C)C(=O)O |  | > 100 µM |  | > 100 µM |  | > 100 µM |  | > 100 |  | > 100 µM |  | > 100 µM |  | > 100 µM |  | > 100 µM |  | > 100 µM |  | 
